# Experimental data published in patent publication US11919885B1, “4-(4-bromophenyl)-2-alkyloxy-6-(2-oxo-2H-1-benzopyran-3-yl)pyridine-3-carbonitrile as antimicrobial compounds” (KING FAISAL UNIVERSITY, priority 2023, dated 2024).
# Tests used:
# Format in all cases: cell-based
# Bacillus cereus = test: Agar plate disc-diffusion, antibacterial activity (inhibition zone); details: nutrient agar, 37° C., 48 h, DMSO control zone subtracted; for inhibition zone, Bacillus Cereus, A: A = concentration of comp. = 10,000 μL; for inhibition zone, Bacillus Cereus, B: B = concentration of comp. = 30.000 μL; for inhibition zone, Bacillus Cereus, C: C = concentration of comp. = 50,000 μL
# Procedure: (§1) The agar plate disc-diffusion method was applied. Sterilized filter papers (6 mm in diameter) were wetted with 10 μL of a solution of 4-(4-Bromophenyl)-2-ethoxy-6-(2-oxo-2H-1-benzopyran-3-yl)-4-phenylpyridine-3-carbonitrile (1) or 4-(4-Bromophenyl)-2-methoxy-6-(2-oxo-2H-1-benzopyran-3-yl)-4-phenylpyridine-3-carbonitrile (2) to be tested, containing […], and the discs were allowed to air dry. The discs were then placed onto the surface of agar plates (nutrient agar for bacteria and Sabouraud's dextrose agar for fungi) seeded with the test organism. Each plate contained 15 mL of the agar medium, previously seeded with 0.2 mL of the broth culture of each organism pregrown for 18 hours. The plates were incubated at 37° C. for 48 h, and 72 h for fungi. The inhibition zones were measured in mm. Discs impregnated with DMSO were used as a control, and its inhibition zone was subtracted from the tested compound actual inhibition zone.
# (§2) The results of the antimicrobial testing can be observed in Tables 1 and 2, below, using ciprofloxacin as a reference.
# Escherichia coli = test: as above; details: nutrient agar, 37° C., 48 h, DMSO control zone subtracted; for inhibition zone, Escherichia coli, A: A = concentration of comp. = 10,000 μL; for inhibition zone, Escherichia coli, B: B = concentration of comp. = 30.000 μL; for inhibition zone, Escherichia coli, C: C = concentration of comp. = 50,000 μL
# Procedure: as §1, §2
# Pseudomonas aeruginosa = test: as above; details: nutrient agar, 37° C., 48 h, DMSO control zone subtracted; for inhibition zone, Pseudomonas aeruginosa, A: A = concentration of comp. = 10,000 μL; for inhibition zone, Pseudomonas aeruginosa, B: B = concentration of comp. = 30.000 μL; for inhibition zone, Pseudomonas aeruginosa, C: C = concentration of comp. = 50,000 μL
# Procedure: as §1, §2
# Staphylococcus aureus = test: as above; details: nutrient agar, 37° C., 48 h, DMSO control zone subtracted; for inhibition zone, Staphylococcus aureus, A: A = concentration of comp. = 10,000 μL; for inhibition zone, Staphylococcus aureus, B: B = concentration of comp. = 30.000 μL; for inhibition zone, Staphylococcus aureus, C: C = concentration of comp. = 50,000 μL
# Procedure: as §1, §2
# Aspergillus flavus = test: Agar plate disc-diffusion, antifungal activity (inhibition zone); details: Sabouraud's dextrose agar, 37° C., 72 h, DMSO control zone subtracted; for inhibition zone, Aspergillus flavus, A: A = concentration of comp. = 10,000 μL; for inhibition zone, Aspergillus flavus, B: B = concentration of comp. = 30.000 μL; for inhibition zone, Aspergillus flavus, C: C = concentration of comp. = 50,000 μL
# Procedure: as §1, §2
# [1] = test system: Chrysosporium keratinophilum; test: as above; details: Sabouraud's dextrose agar, 37° C., 72 h, DMSO control zone subtracted; for inhibition zone, Chrysosporium keratinophilum, A: A = concentration of comp. = 10,000 μL; for inhibition zone, Chrysosporium keratinophilum, B: B = concentration of comp. = 30.000 μL; for inhibition zone, Chrysosporium keratinophilum, C: C = concentration of comp. = 50,000 μL
# Procedure: as §1, §2
smiles,measurement,setting,value
"CCOc1nc(-c2cc3ccccc3oc2=O)cc(-c2ccc(Br)cc2)c1C#N [Compound 1, 4-(4-Bromophenyl)-2-ethoxy-6-(2-oxo-2H-1-benzopyran-3-yl)pyridine-3-carbonitrile]","inhibition zone, Bacillus Cereus, A",Bacillus cereus,30 mm
same,"inhibition zone, Bacillus Cereus, B",Bacillus cereus,34 mm
same,"inhibition zone, Bacillus Cereus, C",Bacillus cereus,40 mm
same,"inhibition zone, Escherichia coli, A",Escherichia coli,30 mm
same,"inhibition zone, Escherichia coli, B",Escherichia coli,40 mm
same,"inhibition zone, Escherichia coli, C",Escherichia coli,50 mm
same,"inhibition zone, Pseudomonas aeruginosa, A",Pseudomonas aeruginosa,25 mm
same,"inhibition zone, Pseudomonas aeruginosa, B",Pseudomonas aeruginosa,30 mm
same,"inhibition zone, Pseudomonas aeruginosa, C",Pseudomonas aeruginosa,39 mm
same,"inhibition zone, Staphylococcus aureus, A",Staphylococcus aureus,20 mm
same,"inhibition zone, Staphylococcus aureus, B",Staphylococcus aureus,25 mm
same,"inhibition zone, Staphylococcus aureus, C",Staphylococcus aureus,35 mm
same,"inhibition zone, Aspergillus flavus, A",Aspergillus flavus,28 mm
same,"inhibition zone, Aspergillus flavus, B",Aspergillus flavus,30 mm
same,"inhibition zone, Aspergillus flavus, C",Aspergillus flavus,41 mm
same,"inhibition zone, Chrysosporium keratinophilum, A",[1],24 mm
same,"inhibition zone, Chrysosporium keratinophilum, B",[1],29 mm
same,"inhibition zone, Chrysosporium keratinophilum, C",[1],42 mm
"COc1nc(-c2cc3ccccc3oc2=O)cc(-c2ccc(Br)cc2)c1C#N [Compound 2, 4-(4-Bromophenyl)-2-methoxy-6-(2-oxo-2H-1-benzopyran-3-yl)pyridine-3-carbonitrile]","inhibition zone, Bacillus Cereus, A",Bacillus cereus,25 mm
same,"inhibition zone, Bacillus Cereus, B",Bacillus cereus,32 mm
same,"inhibition zone, Bacillus Cereus, C",Bacillus cereus,37 mm
same,"inhibition zone, Escherichia coli, A",Escherichia coli,29 mm
same,"inhibition zone, Escherichia coli, B",Escherichia coli,37 mm
same,"inhibition zone, Escherichia coli, C",Escherichia coli,48 mm
same,"inhibition zone, Pseudomonas aeruginosa, A",Pseudomonas aeruginosa,27 mm
same,"inhibition zone, Pseudomonas aeruginosa, B",Pseudomonas aeruginosa,33 mm
same,"inhibition zone, Pseudomonas aeruginosa, C",Pseudomonas aeruginosa,40 mm
same,"inhibition zone, Staphylococcus aureus, A",Staphylococcus aureus,15 mm
same,"inhibition zone, Staphylococcus aureus, B",Staphylococcus aureus,22 mm
same,"inhibition zone, Staphylococcus aureus, C",Staphylococcus aureus,30 mm
same,"inhibition zone, Aspergillus flavus, A",Aspergillus flavus,20 mm
same,"inhibition zone, Aspergillus flavus, B",Aspergillus flavus,21 mm
same,"inhibition zone, Aspergillus flavus, C",Aspergillus flavus,31 mm
same,"inhibition zone, Chrysosporium keratinophilum, A",[1],25 mm
same,"inhibition zone, Chrysosporium keratinophilum, B",[1],28 mm
same,"inhibition zone, Chrysosporium keratinophilum, C",[1],40 mm
"O=C(O)c1cn(C2CC2)c2cc(N3CCNCC3)c(F)cc2c1=O [Cip., ciprofloxacin, reference compound]","inhibition zone, Bacillus Cereus, A",Bacillus cereus,29 mm
same,"inhibition zone, Bacillus Cereus, B",Bacillus cereus,30 mm
same,"inhibition zone, Bacillus Cereus, C",Bacillus cereus,42 mm
same,"inhibition zone, Escherichia coli, A",Escherichia coli,30 mm
same,"inhibition zone, Escherichia coli, B",Escherichia coli,39 mm
same,"inhibition zone, Escherichia coli, C",Escherichia coli,60 mm
same,"inhibition zone, Pseudomonas aeruginosa, A",Pseudomonas aeruginosa,29 mm
same,"inhibition zone, Pseudomonas aeruginosa, B",Pseudomonas aeruginosa,30 mm
same,"inhibition zone, Pseudomonas aeruginosa, C",Pseudomonas aeruginosa,53 mm
same,"inhibition zone, Staphylococcus aureus, A",Staphylococcus aureus,43 mm
same,"inhibition zone, Staphylococcus aureus, B",Staphylococcus aureus,44 mm
same,"inhibition zone, Staphylococcus aureus, C",Staphylococcus aureus,53 mm
same,"inhibition zone, Aspergillus flavus, A",Aspergillus flavus,29 mm
same,"inhibition zone, Aspergillus flavus, B",Aspergillus flavus,30 mm
same,"inhibition zone, Aspergillus flavus, C",Aspergillus flavus,42 mm
same,"inhibition zone, Chrysosporium keratinophilum, A",[1],29 mm
same,"inhibition zone, Chrysosporium keratinophilum, B",[1],30 mm
same,"inhibition zone, Chrysosporium keratinophilum, C",[1],53 mm
